Results as given in ChEMBL document CHEMBL1165880, “'On water' assisted synthesis and biological evaluation of nitrogen and sulfur containing hetero-1,4-naphthoquinones as potent antifungal and antibacterial agents” (2010).
In brackets after ≈: the same amount, converted by molar mass. Activity calls are given as the source filed them. The rule behind the calls is not given here.

Key:
[1] = test system: Staphylococcus aureus; test: Antibacterial activity against Staphylococcus aureus ATCC 25923 after 24 hrs by micro broth dilution method; assay type: functional
[2] = test system: Klebsiella pneumoniae; test: Antibacterial activity against Klebsiella pneumoniae ATCC 27736 after 24 hrs by micro broth dilution method; assay type: functional
[3] = test system: Escherichia coli; test: Antibacterial activity against Escherichia coli after 24 hrs by micro broth dilution method; assay type: functional
[4] = test system: Pseudomonas aeruginosa; test: Antibacterial activity against Pseudomonas aeruginosa […] at 50 ug/ml after 24 hrs by micro broth dilution method; assay type: functional, organism-based
[5] = test system: Aspergillus fumigatus; test: Antifungal activity against Aspergillus fumigatus after 72 hrs by micro broth dilution method; assay type: functional
[6] = test system: Candida parapsilosis; test: Antifungal activity against Candida parapsilosis ATCC 22019 after 48 hrs by micro broth dilution method; assay type: functional
[7] = test system: Candida albicans; test: Antifungal activity against Candida albicans after 48 hrs by micro broth dilution method; assay type: functional
[8] = test system: Trichophyton mentagrophytes; test: Antifungal activity against Trichophyton mentagrophytes after 96 hrs by micro broth dilution method; assay type: functional
[9] = test system: Cryptococcus neoformans; test: Antifungal activity against Cryptococcus neoformans after 72 hrs by micro broth dilution method; assay type: functional

Compound: NCC[C@H](O)C(=O)N[C@@H]1C[C@H](N)[C@@H](O[C@H]2O[C@H](CN)[C@@H](O)[C@H](O)[C@H]2O)[C@H](O)[C@H]1O[C@H]1O[C@H](CO)[C@@H](O)[C@H](N)[C@H]1O [AMIKACIN]
- MIC50 [1]: 27.3 µM (≈ 16 µg/mL)
- MIC50 [2]: 1.71 µM (≈ 1 µg/mL)
- MIC50 [3]: 1.71 µM (≈ 1 µg/mL)

Compound: O=C1C(Cl)=C(NNc2ccccc2)C(=O)c2ccccc21
- Activity [4]: inactive
- MIC50 [5]: 41.9 µM (≈ 12.5 µg/mL)
- MIC50 [6]: 20.9 µM (≈ 6.26 µg/mL)
- MIC50 [7]: 10.4 µM (≈ 3.12 µg/mL)
- MIC50 [8]: 1.31 µM (≈ 0.391 µg/mL)
- MIC50 [1]: 83.8 µM (≈ 25 µg/mL)
- MIC50 [9]: 10.4 µM (≈ 3.12 µg/mL)
- MIC50 [2]: 83.8 µM (≈ 25 µg/mL)
- MIC50 [3]: 83.8 µM (≈ 25 µg/mL)

Compound: Cn1c(O)csc2c(=O)c3ccccc3c(=O)c1=2
- Activity [4]: inactive
- MIC50 [5]: 24.1 µM (≈ 6.25 µg/mL)
- MIC50 [6]: 6.02 µM (≈ 1.56 µg/mL)
- MIC50 [7]: 3 µM (≈ 0.778 µg/mL)
- MIC50 [8]: 3 µM (≈ 0.778 µg/mL)
- MIC50 [1]: 3 µM (≈ 0.778 µg/mL)
- MIC50 [9]: 24.1 µM (≈ 6.25 µg/mL)
- MIC50 [2]: 3 µM (≈ 0.778 µg/mL)
- MIC50 [3]: 24.1 µM (≈ 6.25 µg/mL)

Compound: O=C1C(=O)c2ccccc2C(O)=C1Sc1ccccc1
- Activity [4]: inactive
- MIC50 [5]: > 177 µM
- MIC50 [6]: > 177 µM
- MIC50 [7]: 177 µM (≈ 50 µg/mL)
- MIC50 [8]: 177 µM (≈ 50 µg/mL)
- MIC50 [1]: 177 µM (≈ 50 µg/mL)
- MIC50 [9]: > 177 µM
- MIC50 [2]: 177 µM (≈ 50 µg/mL)
- MIC50 [3]: 88.6 µM (≈ 25 µg/mL)

Compound: O=C1C(Cl)=C(N2CCOCC2)C(=O)c2ccccc21 [2-Chloro-3-morpholino-1,4-naphthoquinone]
- Activity [4]: inactive
- MIC50 [5]: 90.1 µM (≈ 25 µg/mL)
- MIC50 [6]: 22.5 µM (≈ 6.25 µg/mL)
- MIC50 [7]: 45 µM (≈ 12.5 µg/mL)
- MIC50 [8]: 2.81 µM (≈ 0.78 µg/mL)
- MIC50 [1]: 180 µM (≈ 50 µg/mL)
- MIC50 [9]: 22.5 µM (≈ 6.25 µg/mL)
- MIC50 [2]: 22.5 µM (≈ 6.25 µg/mL)
- MIC50 [3]: 45 µM (≈ 12.5 µg/mL)

Compound: Cc1sc2c(=O)c3ccccc3c(=O)c=2n(C)c1O
- MIC50 [5]: 22.9 µM (≈ 6.25 µg/mL)
- MIC50 [6]: 45.7 µM (≈ 12.5 µg/mL)
- MIC50 [7]: 22.9 µM (≈ 6.25 µg/mL)
- MIC50 [8]: 5.71 µM (≈ 1.56 µg/mL)
- MIC50 [1]: 11.4 µM (≈ 3.12 µg/mL)
- MIC50 [9]: 11.4 µM (≈ 3.12 µg/mL)
- MIC50 [2]: 11.4 µM (≈ 3.12 µg/mL)
- MIC50 [3]: 5.71 µM (≈ 1.56 µg/mL)

Compound: CN1CCN(C2=CC(=O)c3c(O)ccc(O)c3C2=O)CC1
- Activity [4]: inactive
- MIC50 [5]: 173 µM (≈ 50 µg/mL)
- MIC50 [6]: 173 µM (≈ 50 µg/mL)
- MIC50 [7]: > 173 µM
- MIC50 [8]: > 173 µM
- MIC50 [1]: 173 µM (≈ 50 µg/mL)
- MIC50 [9]: > 73.4 µM
- MIC50 [2]: 173 µM (≈ 50 µg/mL)
- MIC50 [3]: 173 µM (≈ 50 µg/mL)

Compound: COC(=O)CSC1=C(Cl)C(=O)c2ccccc2C1=O
- Activity [4]: inactive
- MIC50 [5]: 168 µM (≈ 50 µg/mL)
- MIC50 [6]: 168 µM (≈ 50 µg/mL)
- MIC50 [7]: > 168 µM
- MIC50 [8]: 42.1 µM (≈ 12.5 µg/mL)
- MIC50 [1]: 42.1 µM (≈ 12.5 µg/mL)
- MIC50 [9]: 168 µM (≈ 50 µg/mL)
- MIC50 [2]: 42.1 µM (≈ 12.5 µg/mL)
- MIC50 [3]: 42.1 µM (≈ 12.5 µg/mL)

Compound: O=C1C(Cl)=C(N2CCCC2)C(=O)c2ccccc21
- Activity [4]: inactive
- MIC50 [5]: 95.4 µM (≈ 25 µg/mL)
- MIC50 [6]: 23.9 µM (≈ 6.24 µg/mL)
- MIC50 [7]: 11.9 µM (≈ 3.11 µg/mL)
- MIC50 [8]: 1.49 µM (≈ 0.39 µg/mL)
- MIC50 [1]: 95.4 µM (≈ 25 µg/mL)
- MIC50 [9]: 23.9 µM (≈ 6.24 µg/mL)
- MIC50 [2]: 95.4 µM (≈ 25 µg/mL)
- MIC50 [3]: 47.7 µM (≈ 12.5 µg/mL)

Compound: NYSTATIN
- MIC50 [7]: 8.42 µM
- MIC50 [9]: 3.78 µM

Compound: C[C@@H]1[C@H](O)[C@@H](C)/C=C/C=C/C=C/C=C/C=C/C=C/C=C/[C@H](O[C@@H]2O[C@H](C)[C@@H](O)[C@H](N)[C@@H]2O)C[C@@H]2O[C@](O)(C[C@@H](O)C[C@@H](O)[C@H](O)CC[C@@H](O)C[C@@H](O)CC(=O)O[C@H]1C)C[C@H](O)[C@H]2C(=O)O [AMPHOTERICIN B]
- MIC50 [7]: 0.42 µM (≈ 0.388 µg/mL)
- MIC50 [8]: 1.69 µM (≈ 1.56 µg/mL)
- MIC50 [9]: 0.84 µM (≈ 0.776 µg/mL)

Compound: NC[C@H]1O[C@H](O[C@H]2[C@H](O)[C@@H](O[C@H]3O[C@H](CO)[C@@H](O)[C@H](N)[C@H]3O)[C@H](N)C[C@@H]2N)[C@H](O)[C@@H](O)[C@@H]1O [KANAMYCIN]
- MIC50 [1]: 4.13 µM (≈ 2 µg/mL)
- MIC50 [2]: 66 µM (≈ 32 µg/mL)
- MIC50 [3]: 33 µM (≈ 16 µg/mL)
